# Where two headings read alike, the source gives them in different places.
# How the values were obtained:
# Assay in all cases: Kinase panel
# Type in all cases: biochemical
# Lck(h) = molecular target: T1, Lck(h) (Homo sapiens, UniProt P06239)
# T1 construct: purchased Millipore KinaseProfiler
# Pim-2(h) = molecular target: T2, Pim-2(h) (Homo sapiens, UniProt Q9P1W9)
# T2 construct: purchased Millipore KinaseProfiler
# LIMK1(h) = molecular target: T3, LIMK1(h) (Homo sapiens, UniProt P53667)
# T3 construct: purchased Millipore KinaseProfiler
# p70S6K(h) = molecular target: T4, p70S6K(h) (Homo sapiens, UniProt P23443)
# T4 construct: purchased Millipore KinaseProfiler
# IRAK4(h) = molecular target: T5, IRAK4(h) (Homo sapiens, UniProt Q9NWZ3)
# T5 construct: purchased Millipore KinaseProfiler
# T5 sequence (Q9NWZ3 1-460): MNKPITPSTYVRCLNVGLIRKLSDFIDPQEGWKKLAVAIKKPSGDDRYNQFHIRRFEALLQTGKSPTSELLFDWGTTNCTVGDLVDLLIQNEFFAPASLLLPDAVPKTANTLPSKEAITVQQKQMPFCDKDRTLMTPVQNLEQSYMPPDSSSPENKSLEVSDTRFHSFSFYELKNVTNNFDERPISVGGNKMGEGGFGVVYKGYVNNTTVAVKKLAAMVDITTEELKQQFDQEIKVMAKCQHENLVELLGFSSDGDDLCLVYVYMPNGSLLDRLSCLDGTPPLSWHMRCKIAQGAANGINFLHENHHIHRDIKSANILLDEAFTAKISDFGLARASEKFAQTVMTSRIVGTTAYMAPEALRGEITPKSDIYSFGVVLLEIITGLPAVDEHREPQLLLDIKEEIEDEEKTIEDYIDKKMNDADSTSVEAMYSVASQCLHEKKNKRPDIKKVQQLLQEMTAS
# Fyn(h) = molecular target: T6, Fyn(h) (Homo sapiens, UniProt P06241)
# T6 construct: purchased Millipore KinaseProfiler
# TBK1(h) = molecular target: T7, TBK1(h) (Homo sapiens, UniProt Q9UHD2)
# T7 construct: purchased Millipore KinaseProfiler
# T7 sequence (Q9UHD2 1-729): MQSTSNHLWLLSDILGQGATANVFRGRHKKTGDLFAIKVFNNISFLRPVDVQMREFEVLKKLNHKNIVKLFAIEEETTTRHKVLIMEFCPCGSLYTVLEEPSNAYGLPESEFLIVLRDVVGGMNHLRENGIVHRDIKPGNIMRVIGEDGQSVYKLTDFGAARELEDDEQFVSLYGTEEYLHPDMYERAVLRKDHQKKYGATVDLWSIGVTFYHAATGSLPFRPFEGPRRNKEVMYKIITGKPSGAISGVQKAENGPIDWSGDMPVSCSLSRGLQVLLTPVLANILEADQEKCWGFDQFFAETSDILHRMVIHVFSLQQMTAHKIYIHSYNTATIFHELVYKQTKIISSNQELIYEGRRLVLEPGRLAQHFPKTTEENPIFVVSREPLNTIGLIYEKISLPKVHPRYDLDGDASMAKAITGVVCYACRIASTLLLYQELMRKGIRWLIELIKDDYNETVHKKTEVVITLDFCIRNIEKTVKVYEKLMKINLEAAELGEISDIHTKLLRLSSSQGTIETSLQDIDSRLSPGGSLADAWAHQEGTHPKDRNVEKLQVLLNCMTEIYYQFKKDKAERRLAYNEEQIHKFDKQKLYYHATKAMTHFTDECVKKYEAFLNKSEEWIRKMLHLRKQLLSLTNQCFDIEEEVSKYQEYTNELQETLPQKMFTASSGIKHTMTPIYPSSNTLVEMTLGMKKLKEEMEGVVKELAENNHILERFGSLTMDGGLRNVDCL
# mTOR(h) = molecular target: T8, mTOR(h) (Homo sapiens, UniProt P42345)
# T8 construct: purchased Millipore KinaseProfiler
# PAK2(h) = molecular target: T9, PAK2(h) (Homo sapiens, UniProt Q13177)
# T9 construct: purchased Millipore KinaseProfiler
# cKit(h) = molecular target: T10, cKit(h) (Homo sapiens, UniProt P10721)
# T10 construct: purchased Millipore KinaseProfiler
# PKG1α(h) = molecular target: T11, PKG1α(h) (Homo sapiens, UniProt Q13976)
# T11 construct: purchased Millipore KinaseProfiler
# T11 sequence (Q13976 1-671): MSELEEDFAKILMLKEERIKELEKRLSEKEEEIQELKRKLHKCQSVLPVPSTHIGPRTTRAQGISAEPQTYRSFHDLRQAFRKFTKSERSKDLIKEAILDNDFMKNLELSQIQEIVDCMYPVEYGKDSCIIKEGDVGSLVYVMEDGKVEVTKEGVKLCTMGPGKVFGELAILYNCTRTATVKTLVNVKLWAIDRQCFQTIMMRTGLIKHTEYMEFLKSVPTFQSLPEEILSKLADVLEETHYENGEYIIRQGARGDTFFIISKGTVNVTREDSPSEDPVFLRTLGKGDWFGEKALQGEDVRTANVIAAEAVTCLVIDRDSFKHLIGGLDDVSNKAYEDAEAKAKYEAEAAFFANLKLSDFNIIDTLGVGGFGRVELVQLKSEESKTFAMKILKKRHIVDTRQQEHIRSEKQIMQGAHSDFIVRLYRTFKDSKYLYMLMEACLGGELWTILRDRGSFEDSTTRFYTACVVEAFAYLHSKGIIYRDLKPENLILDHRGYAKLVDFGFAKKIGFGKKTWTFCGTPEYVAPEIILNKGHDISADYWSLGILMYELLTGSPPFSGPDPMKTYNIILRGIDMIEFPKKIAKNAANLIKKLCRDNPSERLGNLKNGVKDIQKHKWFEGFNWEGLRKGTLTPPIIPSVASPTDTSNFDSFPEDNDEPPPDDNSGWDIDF
# CDK2/cyclinA(h) = molecular target: T12, CDK2/cyclinA(h) (Homo sapiens, UniProt P24941)
# T12 construct: purchased Millipore KinaseProfiler
# CaMKIδ(h) = molecular target: T13, CaMKIδ(h) (Homo sapiens, UniProt Q8IU85)
# T13 construct: purchased Millipore KinaseProfiler
# JNK1α1(h) = molecular target: T14, JNK1α1(h) (Homo sapiens, UniProt P45983)
# T14 construct: purchased Millipore KinaseProfiler
# MAPK2(h) = molecular target: T15, MAPK2(h) (Homo sapiens, UniProt P28482)
# T15 construct: purchased Millipore KinaseProfiler
# T15 sequence (P28482 whole entry): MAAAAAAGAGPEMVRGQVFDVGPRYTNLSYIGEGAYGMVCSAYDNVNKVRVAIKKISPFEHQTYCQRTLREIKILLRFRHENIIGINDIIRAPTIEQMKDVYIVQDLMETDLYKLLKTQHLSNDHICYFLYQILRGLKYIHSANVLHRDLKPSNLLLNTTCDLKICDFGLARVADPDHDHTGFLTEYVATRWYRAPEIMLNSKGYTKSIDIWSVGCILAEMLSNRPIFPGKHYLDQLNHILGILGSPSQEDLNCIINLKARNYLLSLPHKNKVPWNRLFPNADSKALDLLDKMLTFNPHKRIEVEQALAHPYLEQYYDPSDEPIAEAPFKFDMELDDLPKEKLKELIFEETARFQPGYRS
# T4 sequence (P23443 whole entry): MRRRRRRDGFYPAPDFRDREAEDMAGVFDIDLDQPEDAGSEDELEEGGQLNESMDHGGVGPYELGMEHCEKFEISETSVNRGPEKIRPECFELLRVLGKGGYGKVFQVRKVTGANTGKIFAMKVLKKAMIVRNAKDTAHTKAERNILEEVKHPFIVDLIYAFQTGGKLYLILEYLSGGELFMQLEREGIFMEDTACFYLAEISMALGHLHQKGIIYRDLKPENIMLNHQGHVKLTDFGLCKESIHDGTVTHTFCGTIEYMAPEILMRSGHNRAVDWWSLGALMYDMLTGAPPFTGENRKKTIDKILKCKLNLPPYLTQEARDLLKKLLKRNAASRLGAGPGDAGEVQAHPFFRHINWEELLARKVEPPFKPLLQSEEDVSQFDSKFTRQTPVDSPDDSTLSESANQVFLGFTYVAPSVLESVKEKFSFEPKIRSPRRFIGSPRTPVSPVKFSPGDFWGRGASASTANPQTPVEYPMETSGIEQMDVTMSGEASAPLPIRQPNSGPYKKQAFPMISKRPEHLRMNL
# T13 sequence (Q8IU85 whole entry): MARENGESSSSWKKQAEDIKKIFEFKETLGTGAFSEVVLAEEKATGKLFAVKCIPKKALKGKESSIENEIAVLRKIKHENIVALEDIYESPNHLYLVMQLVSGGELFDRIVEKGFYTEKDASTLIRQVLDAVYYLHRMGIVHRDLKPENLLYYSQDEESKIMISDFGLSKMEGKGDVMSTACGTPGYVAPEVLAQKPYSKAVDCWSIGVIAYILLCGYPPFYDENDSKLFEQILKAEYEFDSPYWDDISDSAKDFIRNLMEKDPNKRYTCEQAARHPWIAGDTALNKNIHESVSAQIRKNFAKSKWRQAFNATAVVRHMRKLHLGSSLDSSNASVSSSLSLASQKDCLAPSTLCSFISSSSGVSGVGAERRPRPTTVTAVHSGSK
# T14 sequence (P45983 1-384 isoform P45983-2): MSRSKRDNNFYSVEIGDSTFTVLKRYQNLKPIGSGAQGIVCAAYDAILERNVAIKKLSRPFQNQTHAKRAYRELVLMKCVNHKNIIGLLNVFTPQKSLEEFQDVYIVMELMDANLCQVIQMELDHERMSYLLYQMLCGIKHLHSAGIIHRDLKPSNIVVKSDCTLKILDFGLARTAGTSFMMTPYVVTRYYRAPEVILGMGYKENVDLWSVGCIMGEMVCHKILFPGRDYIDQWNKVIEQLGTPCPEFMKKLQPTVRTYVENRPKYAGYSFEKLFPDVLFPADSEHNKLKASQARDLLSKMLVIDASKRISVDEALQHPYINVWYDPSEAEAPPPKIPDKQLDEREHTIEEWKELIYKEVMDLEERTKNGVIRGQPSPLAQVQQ
# T9 sequence (Q13177 whole entry): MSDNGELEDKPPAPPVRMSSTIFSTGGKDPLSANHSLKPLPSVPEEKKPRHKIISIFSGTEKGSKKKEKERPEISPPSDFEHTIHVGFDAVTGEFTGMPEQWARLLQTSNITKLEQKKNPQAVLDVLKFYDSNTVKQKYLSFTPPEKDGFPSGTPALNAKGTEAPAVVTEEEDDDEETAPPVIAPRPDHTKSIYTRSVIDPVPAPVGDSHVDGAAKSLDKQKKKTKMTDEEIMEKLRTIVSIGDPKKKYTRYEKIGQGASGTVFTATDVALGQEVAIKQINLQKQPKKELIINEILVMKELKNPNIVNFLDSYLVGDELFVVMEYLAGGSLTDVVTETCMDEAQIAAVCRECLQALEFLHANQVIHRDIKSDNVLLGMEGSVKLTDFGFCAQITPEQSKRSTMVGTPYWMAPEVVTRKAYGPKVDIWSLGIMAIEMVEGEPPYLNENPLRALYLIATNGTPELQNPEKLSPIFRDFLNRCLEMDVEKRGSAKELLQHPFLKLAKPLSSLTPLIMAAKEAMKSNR
# T1 sequence (P06239 whole entry): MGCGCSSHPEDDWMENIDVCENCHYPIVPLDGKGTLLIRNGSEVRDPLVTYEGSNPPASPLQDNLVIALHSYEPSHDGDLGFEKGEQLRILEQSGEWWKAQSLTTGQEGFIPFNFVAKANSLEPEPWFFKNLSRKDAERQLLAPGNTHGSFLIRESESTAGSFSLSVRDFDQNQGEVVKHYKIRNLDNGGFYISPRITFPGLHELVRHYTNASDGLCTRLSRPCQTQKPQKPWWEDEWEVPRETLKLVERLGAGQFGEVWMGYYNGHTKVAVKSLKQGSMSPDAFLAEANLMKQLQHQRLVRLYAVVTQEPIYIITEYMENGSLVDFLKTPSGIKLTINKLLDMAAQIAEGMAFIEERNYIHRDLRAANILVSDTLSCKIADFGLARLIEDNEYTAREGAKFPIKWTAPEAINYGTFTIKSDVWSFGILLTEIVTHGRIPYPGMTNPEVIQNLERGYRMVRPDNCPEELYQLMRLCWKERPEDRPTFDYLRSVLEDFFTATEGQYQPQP
# T3 sequence (P53667 whole entry): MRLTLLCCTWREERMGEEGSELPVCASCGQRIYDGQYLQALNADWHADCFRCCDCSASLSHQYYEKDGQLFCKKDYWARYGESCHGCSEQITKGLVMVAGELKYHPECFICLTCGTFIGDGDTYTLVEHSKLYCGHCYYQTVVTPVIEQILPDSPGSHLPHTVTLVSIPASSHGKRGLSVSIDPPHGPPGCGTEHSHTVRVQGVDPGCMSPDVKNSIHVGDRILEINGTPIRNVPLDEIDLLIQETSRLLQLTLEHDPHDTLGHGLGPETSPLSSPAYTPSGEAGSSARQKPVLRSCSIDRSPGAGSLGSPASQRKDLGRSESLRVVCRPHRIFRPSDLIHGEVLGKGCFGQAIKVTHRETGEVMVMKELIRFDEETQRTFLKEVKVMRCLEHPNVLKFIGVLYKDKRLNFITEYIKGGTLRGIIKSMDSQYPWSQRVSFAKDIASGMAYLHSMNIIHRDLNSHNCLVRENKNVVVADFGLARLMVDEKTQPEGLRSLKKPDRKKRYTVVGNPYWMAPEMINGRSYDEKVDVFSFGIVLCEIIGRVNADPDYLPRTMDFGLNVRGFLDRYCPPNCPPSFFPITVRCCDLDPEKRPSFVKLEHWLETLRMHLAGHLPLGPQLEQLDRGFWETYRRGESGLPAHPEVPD
# T2 sequence (Q9P1W9 whole entry): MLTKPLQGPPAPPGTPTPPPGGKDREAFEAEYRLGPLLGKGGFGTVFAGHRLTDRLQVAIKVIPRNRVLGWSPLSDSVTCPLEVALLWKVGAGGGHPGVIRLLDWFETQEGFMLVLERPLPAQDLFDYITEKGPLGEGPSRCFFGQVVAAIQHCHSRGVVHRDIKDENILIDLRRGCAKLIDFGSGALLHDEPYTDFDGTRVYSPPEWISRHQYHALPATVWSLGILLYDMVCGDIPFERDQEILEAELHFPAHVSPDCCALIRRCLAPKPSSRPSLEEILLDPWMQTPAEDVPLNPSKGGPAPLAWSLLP
# T10 sequence (P10721 26-976): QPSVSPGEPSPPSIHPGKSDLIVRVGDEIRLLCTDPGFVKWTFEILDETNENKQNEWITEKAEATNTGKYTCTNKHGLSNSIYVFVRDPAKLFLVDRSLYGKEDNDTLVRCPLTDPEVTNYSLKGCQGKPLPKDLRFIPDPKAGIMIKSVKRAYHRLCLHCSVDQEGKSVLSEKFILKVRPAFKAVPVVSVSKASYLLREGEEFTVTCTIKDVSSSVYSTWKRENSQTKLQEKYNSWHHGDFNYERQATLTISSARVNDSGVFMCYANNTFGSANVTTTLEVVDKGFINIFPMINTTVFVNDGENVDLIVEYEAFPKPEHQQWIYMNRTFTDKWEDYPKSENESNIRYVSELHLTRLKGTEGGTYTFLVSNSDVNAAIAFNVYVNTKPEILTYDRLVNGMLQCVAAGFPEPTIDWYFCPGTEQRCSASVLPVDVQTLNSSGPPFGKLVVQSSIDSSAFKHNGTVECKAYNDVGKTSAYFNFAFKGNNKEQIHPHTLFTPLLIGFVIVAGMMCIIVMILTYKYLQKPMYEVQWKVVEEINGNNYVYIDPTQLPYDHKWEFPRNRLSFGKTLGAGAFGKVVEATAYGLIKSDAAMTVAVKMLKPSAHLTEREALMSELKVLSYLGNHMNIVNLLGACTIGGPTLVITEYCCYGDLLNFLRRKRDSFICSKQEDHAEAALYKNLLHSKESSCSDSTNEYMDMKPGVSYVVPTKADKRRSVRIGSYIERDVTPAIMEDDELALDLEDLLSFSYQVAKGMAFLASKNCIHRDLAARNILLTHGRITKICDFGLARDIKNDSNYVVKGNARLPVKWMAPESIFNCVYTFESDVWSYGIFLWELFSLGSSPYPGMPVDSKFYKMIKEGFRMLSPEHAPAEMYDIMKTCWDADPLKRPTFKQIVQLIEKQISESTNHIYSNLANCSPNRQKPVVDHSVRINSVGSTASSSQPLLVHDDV
compound,measurement,setting,value
Cn1ncc(Cl)c1-c1cc(C(=O)N[C@H](CN)Cc2cccc(F)c2)sc1Cl [GSK2110183],inhibition at 0.5 µM,Lck(h),7%
same,inhibition at 10 µM,Lck(h),35%
same,inhibition at 0.5 µM,Pim-2(h),5%
same,inhibition at 10 µM,Pim-2(h),35%
same,inhibition at 0.5 µM,LIMK1(h),21%
same,inhibition at 10 µM,LIMK1(h),25%
same,inhibition at 0.5 µM,p70S6K(h),78%
same,inhibition at 10 µM,p70S6K(h),97%
same,inhibition at 0.5 µM,IRAK4(h),-15%
same,inhibition at 10 µM,IRAK4(h),-5%
same,inhibition at 0.5 µM,Fyn(h),-3%
same,inhibition at 10 µM,Fyn(h),12%
same,inhibition at 0.5 µM,TBK1(h),1%
same,inhibition at 10 µM,TBK1(h),2%
same,inhibition at 0.5 µM,mTOR(h),17%
same,inhibition at 10 µM,mTOR(h),-9%
same,inhibition at 0.5 µM,PAK2(h),-2%
same,inhibition at 10 µM,PAK2(h),23%
same,inhibition at 0.5 µM,cKit(h),13%
same,inhibition at 10 µM,cKit(h),8%
same,inhibition at 0.5 µM,PKG1α(h),99%
same,inhibition at 10 µM,PKG1α(h),99%
same,inhibition at 0.5 µM,CDK2/cyclinA(h),-10%
same,inhibition at 10 µM,CDK2/cyclinA(h),1%
same,inhibition at 0.5 µM,CaMKIδ(h),18%
same,inhibition at 10 µM,CaMKIδ(h),78%
same,inhibition at 0.5 µM,JNK1α1(h),-2%
same,inhibition at 10 µM,JNK1α1(h),13%
same,inhibition at 0.5 µM,MAPK2(h),-2%
same,inhibition at 10 µM,MAPK2(h),17%
Cn1ncc(Cl)c1-c1cc(C(=O)N[C@H](CN)Cc2ccc(F)c(F)c2)oc1Cl [GSK2141795],inhibition at 0.5 µM,"Lck(h); 0.5 µM, read-out: % Inhibition",-18%
same,inhibition at 10 µM,"Lck(h); 10 µM, read-out: % Inhibition",21%
same,inhibition at 0.5 µM,"Pim-2(h); 0.5 µM, read-out: % Inhibition",-7%
same,inhibition at 10 µM,"Pim-2(h); 10 µM, read-out: % Inhibition",9%
same,inhibition at 0.5 µM,"LIMK1(h); 0.5 µM, read-out: % Inhibition",3%
same,inhibition at 10 µM,"LIMK1(h); 10 µM, read-out: % Inhibition",18%
same,inhibition at 0.5 µM,"p70S6K(h); 0.5 µM, read-out: % Inhibition",88%
same,inhibition at 10 µM,"p70S6K(h); 10 µM, read-out: % Inhibition",98%
same,inhibition at 0.5 µM,"IRAK4(h); 0.5 µM, read-out: % Inhibition",-12%
same,inhibition at 10 µM,"IRAK4(h); 10 µM, read-out: % Inhibition",0%
same,inhibition at 0.5 µM,"Fyn(h); 0.5 µM, read-out: % Inhibition",-8%
same,inhibition at 10 µM,"Fyn(h); 10 µM, read-out: % Inhibition",10%
same,inhibition at 0.5 µM,"TBK1(h); 0.5 µM, read-out: % Inhibition",1%
same,inhibition at 10 µM,"TBK1(h); 10 µM, read-out: % Inhibition",4%
same,inhibition at 0.5 µM,"mTOR(h); 0.5 µM, read-out: % Inhibition",-16%
same,inhibition at 10 µM,"mTOR(h); 10 µM, read-out: % Inhibition",-4%
same,inhibition at 0.5 µM,"PAK2(h); 0.5 µM, read-out: % Inhibition",22%
same,inhibition at 10 µM,"PAK2(h); 10 µM, read-out: % Inhibition",25%
same,inhibition at 0.5 µM,"cKit(h); 0.5 µM, read-out: % Inhibition",0%
same,inhibition at 10 µM,"cKit(h); 10 µM, read-out: % Inhibition",-1%
same,inhibition at 0.5 µM,"PKG1α(h); 0.5 µM, read-out: % Inhibition",100%
same,inhibition at 10 µM,"PKG1α(h); 10 µM, read-out: % Inhibition",99%
same,inhibition at 0.5 µM,"CDK2/cyclinA(h); 0.5 µM, read-out: % Inhibition",1%
same,inhibition at 10 µM,"CDK2/cyclinA(h); 10 µM, read-out: % Inhibition",20%
same,inhibition at 0.5 µM,"CaMKIδ(h); 0.5 µM, read-out: % Inhibition",16%
same,inhibition at 10 µM,"CaMKIδ(h); 10 µM, read-out: % Inhibition",84%
same,inhibition at 0.5 µM,"JNK1α1(h); 0.5 µM, read-out: % Inhibition",-9%
same,inhibition at 10 µM,"JNK1α1(h); 10 µM, read-out: % Inhibition",-5%
same,inhibition at 0.5 µM,"MAPK2(h); 0.5 µM, read-out: % Inhibition",11%
same,inhibition at 10 µM,"MAPK2(h); 10 µM, read-out: % Inhibition",49%

# From PMC4076210, “Discovery of Novel AKT Inhibitors with Enhanced Anti-Tumor Effects in Combination with the MEK Inhibitor” (PLoS ONE, 2014)
